Experimental data taken from patent publication US10358455B2, “Arene ruthenium complex, preparation method and utilization thereof” (Guangdong Pharmaceutical University, priority 2017, dated 2019).
Where two headings read alike, the source gives them in different places.

Legend:
[1] = test system: rat glioma C6 cancer cells; experiment: MTT assay on rat glioma C6 cells; assay type: cell-based; conditions: 5-80 μM, read-out: The inhibitory effect IC50 on rat glioma C6 cancer cells
Method: The Antiproliferative Activities of Arene Ruthenium (II) Complexes Against Rat Glioma C6 Cancer Cells.
(§1) The antiproliferative effects of arene ruthenium (II) complex against rat glioma C6 cells were evaluated by MTT assay. Discarding the medium of the rat glioma C6 cells in exponential growth phase, washing the cells twice with phosphate-buffered saline (PBS), dissociating into single cells by digesting with 1 mL trypsin, counting the cells. Adding fresh medium to dilute cell population to 1.5×10^4 cells/mL, inoculating into 96-well tissue culture plates (3×10^3 cells per well) with 200 μL/well in 6 wells of each group, repeating twice, and then culturing at 37° C. in 5% CO2 saturated humidity incubator for 16 h. After adherent cells are apparent, removing the supernatant carefully and adding DMEM media. Meanwhile, the cells were incubated with different concentrations of arene ruthenium (II) complexes with a final concentration of 5, 10, 20, 40 and 80 μM respectively, and maintain the total volume at 200 μL/well. Thereafter, the cells were cultured for 72 h. At the end of incubation, 20 μL/well of MTT solution (5 mg/mL) was added and incubated for 4 h. Removing the supernatant carefully and replaced with 150 μL/well of DMSO and oscillated for 10 min to ensure complete dissolution of the formazan crystallization. The absorbance values were measured at 490 nm using a microplate reader. Cell viability was calculated according to the following formula: Cell viability (%)=A490 nm (cells in experimental group)/A490 nm (cells in control group)×100%
According to the values of cell viability, calculating the inhibitory activities (IC50) of the target complex against rat glioma C6 cells.

[2] = test system: MDA-MB-231 breast cancer cells; experiment: MTT assay on MDA-MB-231 breast cancer cells; assay type: cell-based; conditions: 72 h, 5-80 μM, read-out: The inhibitory effect IC50 on MDA-MB-231 breast cancer cells
Method: The Anti-Invasion Activities of Arene Ruthenium (II) Complexes Against MDA-MB-231 Breast Cancer Cells.
The anti-invasion activities of arene ruthenium (II) complexes against MDA-MB-231 breast cancer cells was evaluated by MTT assay. Discarding the medium of the MDA-MB-231 breast cancer cells in exponential growth phase, washing the cells twice with phosphate-buffered saline (PBS), dissociating into single cells by digesting with 1 mL trypsin, counting the cells. Adding fresh medium to dilute cell population to 1.5×10^4 cells/mL, inoculating into 96-well tissue culture plates (3×10^3 cells per well) with 200 μL/well in 6 wells of each group, repeating twice, and then culturing at 37° C. in 5% CO2 saturated humidity incubator for 16 h. After adherent cells are apparent, removing the supernatant carefully and adding DMEM media. Meanwhile, the cells were incubated with different concentrations of arene ruthenium (II) complexes with a final concentration of 5, 10, 20, 40 and 80 μM respectively and maintain the total volume at 200 μL/well. Thereafter, the cells were cultured for 72 h. At the end of incubation, 20 μL/well of MTT solution (5 mg/mL) was added and incubated for 4 h. Removing the supernatant carefully and replaced with 150 μL/well of DMSO and oscillated for 10 mins to ensure complete dissolution of the formazan crystallization. The absorbance values were measured at 490 nm using a microplate reader. Cell viability was calculated according to the following formula: Cell viability (%)=A490 nm (cells in experimental group)/A490 nm (cells in control group)×100%
According to the values of cell viability, calculating the inhibitory activities (IC50) of the target complex against MDA-MB-231 cells.

[3] = test system: nasopharyngeal carcinoma CNE-1 cancer cells; experiment: MTT assay on nasopharyngeal carcinoma CNE-1 cells; assay type: cell-based; conditions: 72 h, 5-80 μM, read-out: The inhibitory effect IC50 on CNE-1 cancer cells
Method: The Antiproliferative Activities of Arene Ruthenium (II) Complexes Against Nasopharyngeal Carcinoma CNE-1 Cancer Cells.
as §1, with “complex against nasopharyngeal carcinoma CNE-1 cells were” for “complex against rat glioma C6 cells were”, “of the nasopharyngeal carcinoma CNE-1 cells in” for “of the rat glioma C6 cells in”, “80 μM respectively and maintain” for “80 μM respectively, and maintain”, “and incubated at 37° C. for 4” for “and incubated for 4”
According to the values of cell viability, calculating the inhibitory activities (IC50) of the target complex against CNE-1 cancer cells.

[4] = test system: A549 lung adenocarcinoma cancer cells; experiment: MTT assay on A549 lung adenocarcinoma cells; assay type: cell-based; conditions: 72 h, 5-80 μM, read-out: The inhibitory effect IC50 on A549 lung adenocarcinoma cancer cells
Method: The Antiproliferative Activities of Arene Ruthenium (II) Complexes Against A549 Lung Adenocarcinoma Cancer Cells
as §1, with “complex against A549 lung adenocarcinoma cells were” for “complex against rat glioma C6 cells were”, “MTT assay. Discarded the medium” for “MTT assay. Discarding the medium”, “of the A549 lung adenocarcinoma cells in” for “of the rat glioma C6 cells in”, “80 μM respectively and maintain” for “80 μM respectively, and maintain”, “and incubated at 37° C. for 4” for “and incubated for 4”
According to the values of cell viability, calculating the inhibitory activities (IC50) of the target complex against A549 lung adenocarcinoma cancer cells.

[5] = test system: human esophageal carcinoma EC-1 cells; experiment: MTT assay on human esophageal carcinoma EC-1 cells; assay type: cell-based; conditions: 72 h, 5-80 μM, read-out: The inhibitory effect IC50 on human esophageal carcinoma EC-1 cells
Method: The Antiproliferative Activities of Arene Ruthenium (II) Complexes Against Human Esophageal Carcinoma EC-1 Cells.
as §1, with “complex against human esophageal carcinoma EC-1 cells were” for “complex against rat glioma C6 cells were”, “medium of human esophageal carcinoma EC-1 cells in” for “medium of the rat glioma C6 cells in”, “with 200 µL/well in 6” for “with 200 μL/well in 6”, “80 μM respectively and maintain” for “80 μM respectively, and maintain”, “and incubated at 37° C. for 4” for “and incubated for 4”
According to the values of cell viability, calculating the inhibitory activities (IC50) of the target complex against human esophageal carcinoma EC-1 cells.

[6] = test system: human epidermal HaCaT cells; experiment: MTT assay on human epidermal HaCaT cells; assay type: cell-based; conditions: 72 h, 5-80 μM, normal epidermal cells, read-out: The inhibitory effect IC50 on human epidermal HaCaT cells
Method: The Antiproliferative Activities of Arene Ruthenium (II) Complexes Against Human Epidermal HaCaT Cells.
The antiproliferative effects of arene ruthenium (II) complex against human epidermal HaCaT cells were evaluated by MTT assay. Discarding the medium of human epidermal HaCaT cells in exponential growth phase and washing the cells twice with phosphate-buffered saline (PBS), dissociating into single cells by digesting with 1 mL trypsin. Adding fresh medium to dilute cell population to 1.5×10^4 cells/mL, inoculating into 96-well tissue culture plates (3×10^3 cells per well) with 200 μL/well in 6 wells of each group, repeating twice, and then culturing at 37° C. in 5% CO2 saturated humidity incubator for 16 h. After adherent cells are apparent, carefully removing the supernatant and adding DMEM media. Meanwhile, the cells were incubated with different concentrations of arene ruthenium (II) complexes with a final concentration of 5, 10, 20, 40 and 80 μM respectively and maintain the total volume at 200 µL/well. Thereafter, the cells were cultured for 72 h. At the end of incubation, 20 μL/well of MTT solution (5 mg/mL) was added and incubated at 37° C. for 4 h. Removing the supernatant carefully and replaced with 150 μL/well of DMSO and oscillated for 10 min to ensure complete dissolution of the formazan crystallization. The absorbance values were measured at 490 nm using a microplate reader. Cell viability was calculated according to the following formula: Cell viability (%)=A490 nm (cells in experimental group)/A490 nm (cells in control group)×100%
According to the values of cell viability, calculating the inhibitory activities (IC50) of the target complex against human epidermal HaCaT cells.

[7] = test system: nasopharyngeal carcinoma cells; conditions: read-out: anti-proliferative activity IC50, nasopharyngeal carcinoma cells; cited from earlier work
lung cancer cells = conditions: read-out: anti-proliferative activity IC50, lung cancer cells; cited from earlier work
breast cancer cells = conditions: read-out: anti-proliferative activity IC50, breast cancer cells; cited from earlier work
ovarian cancer cells = conditions: read-out: anti-proliferative activity IC50, ovarian cancer cells; cited from earlier work
MDA-MB-231 cells = experiment: Cell cycle analysis by flow cytometry (PI staining); assay type: cell-based; conditions: FIG. 75
Method: After incubating with arene ruthenium (II) complex RAP07, the cell cycle arrest of MDA-MB-231 cells was analyzed with an Epics XL-MCL flow cytometer. The general method is: Trypsinizing the cells with trypsin, washing the cells with phosphate-buffered saline (PBS), and fixing the cells with 70% ethanol overnight at −20° C. Washing the fixed cells with phosphate-buffered saline (PBS) and staining with propidium iodide (PI) for 4 hours in the dark. Finally, the cell cycle arrest was analyzed using an Epics XL-MCL flow cytometer, cell cycle distribution was analyzed using MultiCycle software (Phoenix Flow Systems, San Diego, Calif.). The number of apoptotic cells with sub-diploid DNA were determined by measuring the […] in the cell cycle, every 10000 cells of each sample were recorded.

Compound | IC50 [2] [µM] | IC50 [3] [µM] | IC50 [5] [µM] | IC50 [6] [µM] | IC50 ([1]; 72 h) [µM] | other results
Cn1nnc2c(C(N)=O)ncn2c1=O [Temozolomide, reference compound] | – | – | – | – | – | IC50 ([1]; Rattus norvegicus, C6, 72 h): 259 ± 15.5 µM
N.N.[Cl][Pt][Cl] [cis-platin, reference compound] | 17.8 ± 0.9 | 19.1 ± 0.5 | 9.4 ± 0.21 | 17.1 ± 0.8 | – | IC50 [4]: 93.1 ± 0.9 µM
[(η^6-p-cymene)Ru(C6H5-BzTSC)Cl]Cl | – | – | – | – | – | IC50 [7]: 20 µM; IC50 (lung cancer cells): 31 µM; IC50 (breast cancer cells): 10 µM; IC50 (ovarian cancer cells): 34 µM
[(η^6-p-cymene)Ru(m-BrPIP)Cl]Cl [RAP062] | 9.2 ± 0.3 | 15.7 ± 0.11 | – | 37.3 ± 1.99 | 5.4 ± 0.17 | IC50 [4]: 6.59 ± 2.26 µM
[(η^6-p-cymene)Ru(m-ClPIP)Cl]Cl [RAP052] | – | – | – | – | – | IC50 [4]: 36.6 ± 0.67 µM
[(η^6-p-cymene)Ru(o-BrPIP)Cl]Cl [RAP061] | – | – | – | > 100 | – | –
[(η^6-p-cymene)Ru(o-OCH3PIP)Cl]Cl [RAP201] | – | 17.4 ± 0.47 | – | – | – | –
[(η^6-p-cymene)Ru(p-BrPIP)Cl]Cl [RAP07] | 8.33 ± 0.6 | – | 18.1 ± 1.7 | – | 5.6 ± 0.2 | Cell cycle arrest of MDA-MB-231 cells (MDA-MB-231 cells): Induces the S-Phase Arrest
[(η^6-p-cymene)Ru(p-CF3PIP)Cl]Cl [RAP083] | 6.27 ± 0.29 | – | 6.9 ± 0.2 | > 100 | 4.5 ± 0.07 | –
[(η^6-p-cymene)Ru(p-CH3PIP)Cl]Cl [RAP273] | 9.6 ± 0.3 | – | 18.4 ± 11.7 | – | – | –
[(η^6-p-cymene)Ru(p-FPIP)Cl]Cl [RAP04] | – | – | 18.2 ± 0.5 | – | 1.2 ± 0.3 | –
[(η^6-p-cymene)Ru(p-IPIP)Cl]Cl [RAP073] | 3.2 ± 0.1 | 3.3 ± 0.07 | – | – | – | –
[(η^6-p-cymene)Ru(p-N(CH3)2PIP)Cl]Cl [RAP093] | 6.4 ± 0.16 | 11.9 ± 0.73 | – | > 100 | 5.6 ± 0.11 | –
[(η^6-p-cymene)Ru(p-NO2PIP)Cl]Cl [RAP143] | – | – | – | – | 2.4 ± 0.05 | IC50 [4]: 11.8 ± 0.9 µM
